In ChEMBL document CHEMBL3856246, “Pharbilignan C induces apoptosis through a mitochondria-mediated intrinsic pathway in human breast cancer cells” (Bioorg Med Chem Lett, 2016):
pIC50: −log10 of the molar value. The source made the active and inactive calls. No cut-off for these calls is given here.

How the values were obtained:
[1] = Cytotoxicity against human A549 cells after 48 hrs by SRB assay; format: functional, cell-based; settings: A549, 48 h
MCF7 [2] = experiment: Induction of apoptosis in human MCF7 cells assessed as early apoptotic cells at 10 uM after 72 hrs by Annexin V-FITC/propidium iodide based flow cytometric analysis (reference value: 1.14 %); format: functional
MCF7 [3] = experiment: Induction of apoptosis in human MCF7 cells assessed as early apoptotic cells at 20 uM after 72 hrs by Annexin V-FITC/propidium iodide based flow cytometric analysis (reference value: 1.14 %); format: functional
MDA-MB-231 [4] = experiment: Induction of apoptosis in human MDA-MB-231 cells assessed as early apoptotic cells at 10 uM after 72 hrs by Annexin V-FITC/propidium iodide based flow cytometric analysis (reference value: 7.73 %); format: functional
MDA-MB-231 [5] = experiment: Induction of apoptosis in human MDA-MB-231 cells assessed as necrotic cells at 10 uM after 72 hrs by Annexin V-FITC/propidium iodide based flow cytometric analysis (reference value: 0.33 %); format: functional
MCF7 [6] = experiment: Induction of apoptosis in human MCF7 cells assessed as late apoptotic cells at 5 uM after 72 hrs by Annexin V-FITC/propidium iodide based flow cytometric analysis (reference value: 1.28 %); format: functional
MDA-MB-231 [7] = experiment: Induction of apoptosis in human MDA-MB-231 cells assessed as viable cells at 20 uM after 72 hrs by Annexin V-FITC/propidium iodide based flow cytometric analysis (reference value: 91.87 %); format: functional; settings: MDA-MB-231, 72 h, read-out: Activity
[8] = Cytotoxicity against human SKOV3 cells after 48 hrs by SRB assay; format: functional, cell-based; settings: SK-OV-3, 48 h
MDA-MB-231 [9] = experiment: Induction in apoptosis in human MDA-MB-231 cells assessed as decrease in mitochondrial membrane potential at 20 uM after 24 hrs by JC1 fluorescent dye based confocal microscopic analysis; format: functional, cell-based
[10] = Cytotoxicity against human HCT15 cells after 48 hrs by SRB assay; format: functional, cell-based; settings: HCT-15, 48 h
MDA-MB-231 [11] = experiment: Induction of apoptosis in human MDA-MB-231 cells assessed as late apoptotic cells at 20 uM after 72 hrs by Annexin V-FITC/propidium iodide based flow cytometric analysis (reference value: 0.07 %); format: functional
MDA-MB-231 [12] = experiment: Induction of apoptosis in human MDA-MB-231 cells assessed as early apoptotic cells at 5 uM after 72 hrs by Annexin V-FITC/propidium iodide based flow cytometric analysis (reference value: 7.73 %); format: functional
MDA-MB-231 [13] = experiment: Induction of apoptosis in human MDA-MB-231 cells assessed as downregulation of Bcl2 expression up to 20 uM after 72 hrs by Western blot analysis; format: functional, cell-based
MDA-MB-231 [14] = experiment: Induction of apoptosis in human MDA-MB-231 cells assessed as viable cells at 10 uM after 72 hrs by Annexin V-FITC/propidium iodide based flow cytometric analysis (reference value: 91.87 %); format: functional; settings: MDA-MB-231, 72 h, read-out: Activity
MCF7 [15] = experiment: Induction of apoptosis in human MCF7 cells assessed as necrotic cells at 20 uM after 72 hrs by Annexin V-FITC/propidium iodide based flow cytometric analysis (reference value: 3.48 %); format: functional
[16] = Cytotoxicity against human SK-MEL-2 cells after 48 hrs by SRB assay; format: functional, cell-based; settings: SK-MEL-2, 48 h
MDA-MB-231 [17] = experiment: Induction of apoptosis in human MDA-MB-231 cells assessed as necrotic cells at 20 uM after 72 hrs by Annexin V-FITC/propidium iodide based flow cytometric analysis (reference value: 0.33 %); format: functional
MCF7 [18] = experiment: Induction of apoptosis in human MCF7 cells assessed as necrotic cells at 10 uM after 72 hrs by Annexin V-FITC/propidium iodide based flow cytometric analysis (reference value: 3.48 %); format: functional
MDA-MB-231 [19] = experiment: Induction of apoptosis in human MDA-MB-231 cells assessed as necrotic cells at 5 uM after 72 hrs by Annexin V-FITC/propidium iodide based flow cytometric analysis (reference value: 0.33 %); format: functional
MDA-MB-231 [20] = experiment: Induction of apoptosis in human MDA-MB-231 cells assessed as viable cells at 5 uM after 72 hrs by Annexin V-FITC/propidium iodide based flow cytometric analysis (reference value: 91.87 %); format: functional; settings: MDA-MB-231, 72 h, read-out: Activity
[21] = Induction of apoptosis in human MDA-MB-231 cells assessed as upregulation of Bax expression up to 20 uM after 72 hrs by Western blot analysis; format: functional, cell-based
MCF7 [22] = experiment: Cytotoxicity against human MCF7 cells assessed as reduction in cell viability after 72 hrs by WST1 assay; format: functional, cell-based
MCF7 [23] = experiment: Induction of apoptosis in human MCF7 cells assessed as necrotic cells at 5 uM after 72 hrs by Annexin V-FITC/propidium iodide based flow cytometric analysis (reference value: 3.48 %); format: functional
MCF7 [24] = experiment: Induction of apoptosis in human MCF7 cells assessed as viable cells at 10 uM after 72 hrs by Annexin V-FITC/propidium iodide based flow cytometric analysis (reference value: 94.10 %); format: functional; settings: MCF7, 72 h, read-out: Activity
MDA-MB-231 [25] = experiment: Induction of apoptosis in human MDA-MB-231 cells after 72 hrs by Annexin V-FITC/propidium iodide based flow cytometric analysis; format: functional, cell-based
MDA-MB-231 [26] = experiment: Induction of apoptosis in human MDA-MB-231 cells assessed as caspase-3 activation upto 20 uM after 72 hrs by Western blot analysis; format: functional, cell-based
MDA-MB-231 [27] = experiment: Induction of apoptosis in human MDA-MB-231 cells assessed as late apoptotic cells at 10 uM after 72 hrs by Annexin V-FITC/propidium iodide based flow cytometric analysis (reference value: 0.07 %); format: functional
MDA-MB-231 [28] = experiment: Induction of apoptosis in human MDA-MB-231 cells assessed as caspase-9 activation upto 20 uM after 72 hrs by Western blot analysis; format: functional, cell-based
MDA-MB-231 [29] = experiment: Induction of apoptosis in human MDA-MB-231 cells assessed as early apoptotic cells at 20 uM after 72 hrs by Annexin V-FITC/propidium iodide based flow cytometric analysis (reference value: 7.73 %); format: functional
MCF7 [30] = experiment: Induction of apoptosis in human MCF7 cells assessed as viable cells at 20 uM after 72 hrs by Annexin V-FITC/propidium iodide based flow cytometric analysis (reference value: 94.10 %); format: functional; settings: MCF7, 72 h, read-out: Activity
MCF7 [31] = experiment: Induction of apoptosis in human MCF7 cells assessed as late apoptotic cells at 20 uM after 72 hrs by Annexin V-FITC/propidium iodide based flow cytometric analysis (reference value: 1.28 %); format: functional
MCF7 [32] = experiment: Induction of apoptosis in human MCF7 cells assessed as late apoptotic cells at 10 uM after 72 hrs by Annexin V-FITC/propidium iodide based flow cytometric analysis (reference value: 1.28 %); format: functional
MDA-MB-231 [33] = experiment: Induction of apoptosis in human MDA-MB-231 cells assessed as late apoptotic cells at 5 uM after 72 hrs by Annexin V-FITC/propidium iodide based flow cytometric analysis (reference value: 0.07 %); format: functional
[34] = (§1) Cytotoxicity against human MDA-MB-231 cells assessed as reduction in cell viability after 72 hrs by WST1 assay; format: functional, cell-based; settings: MDA-MB-231, 72 h
MDA-MB-231 [35] = experiment: as §1; format: functional, cell-based
MCF7 [36] = experiment: Induction of apoptosis in human MCF7 cells assessed as early apoptotic cells at 5 uM after 72 hrs by Annexin V-FITC/propidium iodide based flow cytometric analysis (reference value: 1.14 %); format: functional
MCF7 [37] = experiment: Induction of apoptosis in human MCF7 cells assessed as viable cells at 5 uM after 72 hrs by Annexin V-FITC/propidium iodide based flow cytometric analysis (reference value: 94.10 %); format: functional; settings: MCF7, 72 h, read-out: Activity

CCOC(=O)/C=C/c1cc(O)c2c(c1)[C@@H](C(=O)OCC)[C@@H](c1ccc(O)c(O)c1)O2
pIC50 [1]: 5.85
Activity (MCF7 [2]): 0.7%
Activity (MCF7 [3]): 1.22%
Activity (MDA-MB-231 [4]): 19.5%
Activity (MDA-MB-231 [5]): 1.9%
Activity (MCF7 [6]): 0.6%
viability at 20 µM (MDA-MB-231 [7]): 68.3%
pIC50 [8]: 6.80
Activity (MDA-MB-231 [9]): Active
pIC50 [10]: 6.85
Activity (MDA-MB-231 [11]): 3.17%
Activity (MDA-MB-231 [12]): 6.73%
Activity (MDA-MB-231 [13]): Active
viability at 10 µM (MDA-MB-231 [14]): 77.1%
Activity (MCF7 [15]): 12.46%
pIC50 [16]: 6.70
Activity (MDA-MB-231 [17]): 2.87%
Activity (MCF7 [18]): 9.3%
Activity (MDA-MB-231 [19]): 0.2%
viability at 5 µM (MDA-MB-231 [20]): 93%
Activity [21]: Active
Activity (MCF7 [22]): Dose-dependent effect
Activity (MCF7 [23]): 7.24%
viability at 10 µM (MCF7 [24]): 88.9%
Activity (MDA-MB-231 [25]): Dose-dependent effect
Activity (MDA-MB-231 [26]): Active
Activity (MDA-MB-231 [27]): 1.5%
Activity (MDA-MB-231 [28]): Active
Activity (MDA-MB-231 [29]): 25.63%
viability at 20 µM (MCF7 [30]): 84.9%
Activity (MCF7 [31]): 1.38%
Activity (MCF7 [32]): 1.1%
Activity (MDA-MB-231 [33]): 0.1%
pIC50 [34]: 5.15
Activity (MDA-MB-231 [35]): Dose-dependent effect
Activity (MCF7 [36]): 0.68%
viability at 5 µM (MCF7 [37]): 91.5%
